Ten compounds from ChEMBL document CHEMBL1201862, “PubChem BioAssay data set” (2004) can be followed below.

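A five-concentration, 48-hour dose response in 96-well plates underlies each endpoint, interpolated linearly between surrounding concentrations. GI50: concentration for 50% inhibition of growth.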 Calls of active or inactive are those of the source. No stated cut-off is given here; in the data, active = GI50 up to about 1.1 µM and inactive = higher.

Some test systems named below: 786-0; HCT-116; HOP-62; K562; LOX IMVI; M14; MOLT-4; NCI-H460; NCI-H522; OVCAR-3; SK-OV-3; SN12C; SW-620; UACC-62.
Holding throughout (test): DTP human tumour cell line panel, 48 h

Regarding `CC1CCCc2c(CC3CC(=O)NC(=O)C3)n[nH]c21` (centres undefined), the GI50 with 786-0, with HCT-116, in the test with HOP-62, in the test on K562, in the test on LOX IMVI and in the test on M14 was > 100 µM (inactive) in each case. Also, the GI50 with MOLT-4, in the test on NCI-H460, with NCI-H522, with OVCAR-3, in the test on SK-OV-3 and in the test with SN12C was > 100 µM (inactive) each time. Moreover, the GI50 in the test with SW-620 and in the test with UACC-62 was > 100 µM (inactive) in each case.

As for `O=C1OC(c2ccccc2)=N/C1=C/NC(CS)C(=O)O` (centres undefined), the GI50 in the test with 786-0, in the test on HCT-116, in the test with HOP-62, in the test on K562, in the test on LOX IMVI and in the test with M14 was > 100 µM (inactive) each time. The GI50 in the test on MOLT-4 is > 100 µM (inactive); in the test with NCI-H460, > 100 µM (inactive); in the test with NCI-H522 it was 55.8 µM (inactive); with OVCAR-3, > 100 µM (inactive); with SK-OV-3 it was > 100 µM (inactive); in the test with SN12C, > 100 µM (inactive). The GI50 in the test with SW-620 and in the test with UACC-62 was > 100 µM (inactive) each time.

Turning to `COc1cc(Nc2nc3cc(C(F)(F)F)ccc3nc2C)cc(OC)c1OC`, the GI50 in the test on 786-0 is 12.2 µM (inactive); in the test with HCT-116, 8.81 µM (inactive); in the test with HOP-62, 16.7 µM (inactive); in the test with K562, 5.52 µM (inactive); with LOX IMVI, 3.13 µM (inactive); in the test with M14, 7.6 µM (inactive). The GI50 was 6.95 µM (inactive) with MOLT-4; 4.11 µM (inactive) with NCI-H460; 12.3 µM (inactive) in the test on NCI-H522; 16.1 µM (inactive) in the test on OVCAR-3; 14.4 µM (inactive) with SK-OV-3; 10.4 µM (inactive) in the test on SN12C. In addition, the GI50 in the test with SW-620 was 13.3 µM (inactive); in the test with UACC-62, 3.94 µM (inactive).

As for `Cc1oc2c(C)c3oc(=O)cc(C)c3cc2c1CN`, the GI50 in the test on 786-0 was 39.9 µM (inactive); in the test on HCT-116, 22.8 µM (inactive); with HOP-62, 38.8 µM (inactive); with K562, 37.6 µM (inactive); with LOX IMVI it was 16.2 µM (inactive); with M14, 38.5 µM (inactive). Also, the GI50 in the test with MOLT-4 was 24.7 µM (inactive); with NCI-H460, 27.9 µM (inactive); with NCI-H522, 42.4 µM (inactive); in the test with OVCAR-3, 61.4 µM (inactive); in the test on SK-OV-3 it was 23.7 µM (inactive); with SN12C, 42.5 µM (inactive). Also, the GI50 in the test with SW-620 is 19.5 µM (inactive); with UACC-62, 92.3 µM (inactive).

Turning to `CCCCCNC(=O)CCCCCCCCCCCNC(=O)CCCCCCCCCCN1C=CC(=CC=C2C=CC(=O)C=C2)C=C1`, the GI50 is > 100 µM (inactive) in the test with 786-0; > 100 µM (inactive) in the test on HCT-116; 64.6 µM (inactive) with HOP-62; 21.2 µM (inactive) with K562; 34.8 µM (inactive) in the test on LOX IMVI; > 100 µM (inactive) with M14. Further, the GI50 in the test on MOLT-4 is 29 µM (inactive); in the test on NCI-H460 it was > 100 µM (inactive); with NCI-H522, 32.4 µM (inactive); with OVCAR-3, 41.3 µM (inactive); with SK-OV-3 it was > 100 µM (inactive); with SN12C, 39.4 µM (inactive). In addition, the GI50 with SW-620 is 54.1 µM (inactive); with UACC-62, 48.4 µM (inactive).

With `O=C1C(c2ccccc2)=C(O)c2cccc3cccc1c23`, the GI50 with 786-0, with HCT-116, in the test on K562, with LOX IMVI, with M14 and in the test on MOLT-4 was > 100 µM (inactive) each time. Further, the GI50 with NCI-H460 was > 100 µM (inactive); in the test on NCI-H522, > 100 µM (inactive); in the test with OVCAR-3 it was 47.4 µM (inactive); in the test with SK-OV-3, > 100 µM (inactive); with SN12C, > 100 µM (inactive); in the test on SW-620, > 100 µM (inactive). Also, in the test on UACC-62, the GI50 is > 100 µM (inactive).

Turning to `O=C(NC1C(=O)NNC1c1ccccc1Cl)c1ccccc1` (centres undefined), the GI50 is > 100 µM (inactive) in the test on 786-0; > 100 µM (inactive) with HCT-116; > 100 µM (inactive) with HOP-62; 39.4 µM (inactive) in the test with K562; > 100 µM (inactive) with LOX IMVI; > 100 µM (inactive) in the test with M14. Also, the GI50 is 64.4 µM (inactive) in the test on MOLT-4; > 100 µM (inactive) in the test with NCI-H460; 91.4 µM (inactive) in the test with NCI-H522; > 100 µM (inactive) with OVCAR-3; > 100 µM (inactive) with SK-OV-3; > 100 µM (inactive) with SN12C. The GI50 in the test on SW-620 and with UACC-62 was > 100 µM (inactive) each time.

On to `COC(=O)c1c(C)cc2c(c1O)C1(O)C(=O)c3cc4c(c(O)c3C(=O)C1(OC)C(O)C2)C(=O)C=C(NC1OC(C)C(OC)C(O)C1OC)C4=O` (centres undefined), for which the GI50 in the test with 786-0 is 0.0753 µM (active); with HCT-116, 0.0378 µM (active); in the test on HOP-62, 0.277 µM (active); in the test with K562 it was 0.0204 µM (active); in the test with LOX IMVI, 0.0342 µM (active); with M14, 0.119 µM (active). Also, the GI50 is 0.0208 µM (active) in the test with MOLT-4; 0.0986 µM (active) in the test with NCI-H460; 0.0552 µM (active) in the test with NCI-H522; 0.11 µM (active) in the test with OVCAR-3; 0.298 µM (active) with SK-OV-3; 0.139 µM (active) with SN12C. The GI50 is 0.0416 µM (active) in the test on SW-620 and 0.0139 µM (active) in the test on UACC-62.

As to `O=c1c2ccccc2c(=O)c2c1c1[nH]c3ccccc3c1c1c(=O)c3ccccc3c(=O)c21`, the GI50 with 786-0, with HCT-116, with HOP-62, in the test on K562, in the test on LOX IMVI and in the test with M14 was > 100 µM (inactive) in each case. The GI50 in the test with MOLT-4, with NCI-H460, with NCI-H522, in the test with OVCAR-3, in the test on SK-OV-3 and in the test on SN12C was > 100 µM (inactive) each time. Also, the GI50 with SW-620 and with UACC-62 was > 100 µM (inactive) each time.

With `CC(=O)OC(CC1(C)C(C)CCC23COC(=O)C2=CCCC31)c1ccoc1` (centres undefined), the GI50 was 17.1 µM (inactive) in the test with 786-0; 20.5 µM (inactive) in the test with HCT-116; 27.5 µM (inactive) in the test on HOP-62; 23.4 µM (inactive) with K562; 21.3 µM (inactive) with LOX IMVI; 16.3 µM (inactive) with M14. The GI50 is 19.5 µM (inactive) with MOLT-4; 40.4 µM (inactive) in the test on NCI-H460; 18.5 µM (inactive) in the test with NCI-H522; 20.8 µM (inactive) in the test on OVCAR-3; 40.8 µM (inactive) in the test with SK-OV-3; 19.9 µM (inactive) with SN12C. For the same compound, the GI50 in the test on SW-620 was 24.9 µM (inactive); in the test on UACC-62 it was 23.1 µM (inactive).

By GI50 is commonly meant the concentration giving 50% growth inhibition.
